Measurements as given in patent US20230103444A1 (The Regents of the University of Colorado, a Body Corporate, priority 2020, published 2023).
Read-outs that look alike come from different tables or passages of the source.

Columns and labels:
HCT116 tumor organoids = assay: Tumor organoid cytotoxicity (CellTiter-Glo 3D); format: cell-based, human
Description: (§1) Cell based cytotoxicity dose response and combination studies. […] Plates were then incubated for 3 days before treatment.
Cell Line Tumor Organoid Culture.
Tumor Organoid Cytotoxicity.

[1] = Mouse liver microsome stability; settings: CD-1, mouse
Description: Microsome stability. CD-1 mouse microsomes were commercially purchased and the reactions were performed as previously described. […] The master mix was pre-incubated at 37° C. for 5 min, then 1 mM NADPH was added to start the microsomal activity reaction and maintained at 37° C. throughout the time course. Reactions were stopped at 0, 5, 15, 30, 45, and 60 min by adding 200 μL acetonitrile and analyzed by mass spectrometry. The appropriate microsome controls were also performed in the same reaction conditions.

SW620 tumor organoids [2] = assay: Tumor organoid cytotoxicity (CellTiter-Glo 3D)
SW620 tumor organoids [3] = assay: Synergy studies with SN38 (LOEWE synergy scores); format: cell-based, human; settings: killing SW620 tumor organoids
Description: as §1
(e.g., synergy score 20 corresponds to 20% of response beyond expectation). According to our experience, the synergy scores near 0 gives limited confidence on synergy or antagonism.
When the synergy score is: • Less than −10: the interaction between two drugs is likely to be antagonism; • From −10 to 10: the interaction between two drugs is likely to be additivity; • Larger than 10: the interaction between two drugs is likely to be synergy.

[4] = Human microsomal stability; format: in vitro ADME; settings: human microsomes, Table 6, read-out: Microsomal stability Human t1/2
cat-CHD1L ATPase = biological target: T1, cat-CHD1L ATPase (Homo sapiens, UniProt Q86WJ1); assay: CHD1L ATPase assay with recombinant catalytic domain (cat-CHD1L); format: biochemical; settings: for IC50: Table 6, read-out: cat-CHD1L inhibition IC50
T1 construct: inferred from Ni-NTA / imidazole purification; made in house; host or cells: E. coli Rosetta 2 (DE3) pLysS; constructs were a gift from Helena Berglund, Karolinska Institute
T1 sequence (Q86WJ1 16-611 limits assumed): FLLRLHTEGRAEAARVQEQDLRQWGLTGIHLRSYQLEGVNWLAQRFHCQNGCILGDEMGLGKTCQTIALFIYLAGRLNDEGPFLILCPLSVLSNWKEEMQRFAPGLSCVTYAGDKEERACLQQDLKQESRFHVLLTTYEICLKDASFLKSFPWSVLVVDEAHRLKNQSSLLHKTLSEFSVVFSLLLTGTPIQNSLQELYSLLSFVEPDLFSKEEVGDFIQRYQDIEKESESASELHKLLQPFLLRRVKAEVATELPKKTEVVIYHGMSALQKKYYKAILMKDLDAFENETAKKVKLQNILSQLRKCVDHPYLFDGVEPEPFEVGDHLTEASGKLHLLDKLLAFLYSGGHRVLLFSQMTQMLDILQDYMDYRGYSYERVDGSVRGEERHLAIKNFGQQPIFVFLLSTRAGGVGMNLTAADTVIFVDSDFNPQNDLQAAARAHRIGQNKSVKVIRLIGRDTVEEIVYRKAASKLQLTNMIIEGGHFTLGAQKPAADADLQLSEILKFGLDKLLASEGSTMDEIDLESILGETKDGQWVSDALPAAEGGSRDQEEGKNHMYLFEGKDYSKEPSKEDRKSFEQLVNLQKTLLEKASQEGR
Description: All reactions were carried out using low volume non-binding surface 384-well plates (Corning Inc., Corning N.Y.). cat-CHD1L or fl-CHD1L (100 nM) and 200 nM c-Myc DNA or mononucelosome (Active Motif, Carlsbad, Calif.) were added to a buffer containing 50 mM Tris pH 7.5, 50 mM NaCl, 1 mM DTT, 5% glycerol, and the reaction was initiated by the addition of 10 μM ATP (New England Biolabs, Ipswich, Mass.) to a total volume of 10 μL and incubated at 37° C. for 1 h. ATPase activity was assayed by adding 500 nM of Phosphate Sensor (Life Technologies, Carlsbad, Calif.), containing labeled phosphate-binding protein, specifically labeled with the fluorophore MDCC, and measuring excitation (430 nm) and emission (450 nm) immediately on an EnVision® plate reader (PerkinElmer, Hopkinton, Mass.). An inorganic phosphate standard curve was used to convert the fluorescence to [Pi], and enzyme kinetics were determined using Prism8 (GraphPad Software, San Diego, Calif.).
Assay composition was the same as described above using cat-CHD1L, except that the reaction mixture volume was modified to accommodate addition of drug or DMSO. Using a Janus® liquid handler (PerkinElmer, Hopkinton, Mass.), a selected amount of compounds dissolved in 100% DMSO were mixed with 50 mM Tris pH 7.5, 50 mM NaCl, 1 mM DTT, 5% glycerol buffer to 200 μM in 10% DMSO. […] The negative control used was 1% DMSO and 10 mM EDTA was used as a positive control. Reactions were initiated with the addition of 10 μM ATP and incubated at 37° C. for 1 h. ATPase activity was measured by fluorescence by adding 500 nM Phosphate Sensor. cat-CHD1L was screened against a 20,000-compound diversity set from Life Chemicals (Woodbridge, Conn.) and a Kinase Inhibitor library from Selleck Chemicals (Houston, Tex.).
CHD1L Enzyme ATPase Assay. […] All reactions were carried out using low volume nonbinding surface 384-well plates (Corning Inc., Corning, N.Y.). […] The reaction was initiated by the addition of 10 μmol/L ATP (New England Biolabs, Ipswich, Mass.) to a total volume of 10 μL and incubated at 37° C. for 1 hour. ATPase activity was measured by adding 500 nmol/L of Phosphate Sensor (ThermoFisher, Waltham, Mass.) measuring excitation (430 nm) and emission (450 nm) immediately on an Envision plate reader (PerkinElmer, Waltham, Mass.). Background signal was determined by using all assay components excluding the enzyme.

[5] = Homo sapiens, HCT-116, 72 h, Table 6, read-out: 3 D Cytotoxicity 72 hr IC50 (μM) HCT116
[6] = Homo sapiens, HCT-116, single agent, Table 4A, read-out: Tumor Organoid Cytotoxicity IC50 (μM) HCT116
[7] = liver microsomes, pH 7.4, In Vitro Half-Life (Min), second series, different liver microsome preparation
[8] = Homo sapiens, SW-620, 72 h, read-out: 3 D Cytotoxicity 72 hr IC50 (μM) SW620
[9] = Homo sapiens, SW-620, read-out: Tumor Organoid Cytotoxicity IC50 (μM) SW620
[10] = liver microsomes, pH 7.4, Microsomal stability Mouse t1/2 (min), Table 6
[11] = Homo sapiens, SW-620, read-out: IC50 of cytotoxicity in SW620 cells

| Structure (SMILES) | IC50 (HCT116 tumor organoids; [5]) [µM] | IC50 (HCT116 tumor organoids; [6]) [µM] | half-life at 10 μM [1, 7] [min] | IC50 (SW620 tumor organoids [2]; [8]) [µM] | IC50 (SW620 tumor organoids [2]; [9]) [µM] | IC50 (cat-CHD1L ATPase) [µM] | also measured |
| --- | --- | --- | --- | --- | --- | --- | --- |
| Cc1nc(N2CCCC2)nc(Nc2ccc(NC(=O)Cc3cccs3)cc2)c1F [Compound 6.1, N-(4-((5-fluoro-6-methyl-2-(pyrrolidin-1-yl)pyrimidin-4-yl)amino)phenyl)-2-(thiophen-2-yl)acetamide] | > 40 | > 30 | 34.9 | > 40 | > 40 |  |  |
| O=C(Cc1cccs1)Nc1ccc(Nc2nc(N3CCCC3)ncc2F)cc1 [Compound 6.2, N-(4-((5-fluoro-2-(pyrrolidin-1-yl)pyrimidin-4-yl)amino)phenyl)-2-(thiophen-2-yl)acetamide] |  |  | 26.1 | > 40 | > 40 |  |  |
| Cc1nc(N2CCCC2)nc(Nc2ccc(N(C)C(=O)Cc3cccs3)cc2)c1F [Compound 6.4] | > 40 | > 30 |  | > 40 | 28.4 |  | half-life at 10 μM ([1]; microsomes, pH 7.4): 31.4 min |
| Cc1cc(Nc2ccc(NC(=O)c3c[nH]c4ncccc34)cc2)nc(N2CCCC2)n1 [Compound 6.9, N-(4-((6-methyl-2-(pyrrolidin-1-yl)pyrimidin-4-yl)amino)phenyl)-1H-pyrrolo[2,3-b]pyridine-3-carboxamide] | 19.7 | 19.6 | 295 | 8.3 | 8.1 |  | synergism with irinotecan (and SN38), in words (SW620 tumor organoids [3]): synergism |
| COc1cnc(N2CCCC2)nc1Nc1ccc(NC(=O)Cc2cccs2)cc1 [Compound 6.10, N-(4-((5-methoxy-2-(pyrrolidin-1-yl)pyrimidin-4-yl)amino)phenyl)-2-(thiophen-2-yl)-acetamide] | > 40 | > 30 | 16.7 | 24.1 | 22.6 |  |  |
| Cc1cc(Oc2ccc(NC(=O)Cc3cccs3)cc2)nc(Cl)n1 [Compound 6.12, N-(4-((2-chloro-6-methylpyrimidin-4-yl)oxy)phenyl)-2-(thiophen-2-yl)acetamide] | > 40 | > 30 | 9.3 | > 20 | > 20 |  |  |
| Cc1cc(Oc2ccc(NC(=O)Cc3cccs3)cc2)nc(N2CCCC2)n1 [Compound 6.13, N-(4-((6-methyl-2-(pyrrolidin-1-yl)pyrimidin-4-yl)oxy)phenyl)-2-(thiophen-2-yl)acetamide] | > 40 | > 30 | 43.1 | > 20 | > 20 |  |  |
| Cc1cc(Oc2ccc(NC(=O)c3c[nH]c4ccccc34)cc2)nc(N2CCCC2)n1 [Compound 6.14, N-(4-((6-methyl-2-(pyrrolidin-1-yl)pyrimidin-4-yl)oxy)phenyl)-1H-indole-3-carboxamide] | 15.3 | 15.3 | 70.4 | 11.1 | 10.4 |  |  |
| Cc1cc(Nc2ccc(NC(=O)Cc3cccs3)cc2)nc(N2CCOCC2)n1 [Compound 6.15, N-(4-((6-methyl-2-morpholinopyrimidin-4-yl)amino)phenyl)-2-(thiophen-2-yl)acetamide] | 19.7 | 19.7 | 22.7 | 13.1 | 16.4 |  |  |
| Cc1cc(Nc2ccc(NC(=O)Cc3cccc4ccccc34)cc2)nc(N2CCCC2)n1 [Compound 6.16, N-(4-((6-methyl-2-(pyrrolidin-1-yl)pyrimidin-4-yl)amino)phenyl)-2-(naphthalen-1-yl)acetamide] | 2.4 | 2.43 |  |  |  |  | half-life at 10 μM [1, 10]: 55.5 min; half-life [4]: 59.5 min; IC50 (SW620 tumor organoids [2]; [11]): < 10 µM |
| Cc1cc(Nc2ccc(NC(=O)Cc3c(C)[nH]c4ccccc34)cc2)nc(N2CCCC2)n1 [Compound 6.21, 2-(2-methyl-1H-indol-3-yl)-N-(4-((6-methyl-2-(pyrrolidin-1-yl)pyrimidin-4-yl)amino)phenyl)acetamide] |  |  |  | 1.7 | 1.6 |  | half-life at 10 μM [1, 10]: 47.8 min; half-life [4]: 43.8 min; IC50 (SW620 tumor organoids [2]; [11]): < 10 µM |
| Cc1cc(Nc2ccc(NC(=O)Cc3cc(Br)cs3)cc2)nc(N2CCCCC2)n1 [Compound 6.49] | 14.7 |  |  | 17 |  | 2.3 |  |
| Cc1cc(Nc2ccc(NC(=O)Cn3ccnc3)cc2)nc(N2CCCC2)n1 [Compound 6.50] | 26.2 |  |  | > 40 |  | > 20 |  |
| Cc1cc(Nc2ccc(NC(=O)Cn3ccnc3)cc2)nc(N2CCCCC2)n1 [Compound 6.51] | 15.1 |  |  | 40.7 |  | 6 |  |
| Cc1cc(Nc2ccc(NC(=O)Cn3ccnc3)cc2)nc(N2CCN(C)CC2)n1 [Compound 6.52] | > 20 |  |  | > 20 |  | > 20 |  |
| Cc1cc(Nc2ccc(NC(=O)Cc3cc(Br)cs3)cc2)n2nc(N)nc2n1 [Compound 6.53] | > 40 |  |  | > 40 |  | > 20 |  |
| Cc1cc(NCc2ccc(NC(=O)Cc3cc(Br)cs3)cc2)n2nc(N)nc2n1 [Compound 6.54] | > 40 |  |  | > 40 |  | 3.5 |  |
| Cc1cc(Nc2ccc(NC(=O)Cc3cc(Br)cs3)cc2)n2nc(N3CCCC3)nc2n1 [Compound 6.55] | > 40 |  |  | > 40 |  | 18.7 |  |
| Cc1cc(NCc2ccc(NC(=O)Cc3cc(Br)cs3)cc2)n2nc(N3CCCC3)nc2n1 [Compound 6.56] | > 40 |  |  | > 40 |  | 2.5 |  |
| Cc1cc(NCc2ccc(NC(=O)Cc3cc(Br)cs3)cc2)nc(N2CCNCC2)n1 [Compound 6.57] | 10.8 |  |  | 14.6 |  | 2.4 |  |
| O=C(Cc1cc(Br)cs1)Nc1ccc(CNc2cc(C(F)(F)F)nc(N3CCCC3)n2)cc1 [Compound 6.58] |  |  |  |  |  | 1.4 | IC50 (HCT116 tumor organoids; Table 6, read-out: 3 D Cytotoxicity 72 hr IC50 (μM) HCT116): 7.8 µM; CHD1L enzyme inhibition, in words (cat-CHD1L ATPase; recombinant cat-CHD1L): good enzyme inhibition; IC50 (SW620 tumor organoids [2]; read-out: 3 D Cytotoxicity 72 hr IC50 (μM) SW620, Table 6): 2.2 µM |
| O=C(Cc1cc(Br)cs1)Nc1ccc(Nc2cc(C(F)(F)F)nc(N3CCCC3)n2)cc1 [Compound 6.59] | 11.9 |  |  | 14.8 |  | 1 |  |
